The values that follow come from patent publication US20180099931A1 (AbbVie S.à.r.l., priority 2016, published 2018).

The experiment deals with T1, F508delCFTR (Homo sapiens, UniProt P13569, DEL508-508).
T1 construct: expressed in transfected cells; host or cells: CFBE41o- human lung-derived epithelial cells (CFBE4lo-F508delCFTR-HRP), doxycycline-inducible
The experiment is described as follows: Cell Surface Expression-Horse Radish Peroxidase (CSE-HRP) Assay.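 For Maximum % activity (with co-corrector): co-corrector and positive control are both the same reference corrector at 2 µM.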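 For Maximum % activity (without co-corrector): percent of the 2 µM on-plate positive control corrector response above DMSO.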 In kind it is cell-based. The note with it: for Maximum % activity (with co-corrector) / Emax: maximum at any tested concentration, normalized to on-plate positive control; for Emax: read-out: Maximum % activity (without co-corrector).

Where [1] appears, read: test compound without co-corrector, read-out: EC50 (without co-corrector).
[2] abbreviates: with co-corrector (2 μM of 3-[(2R,4R)-4-({[1-(2,2-difluoro-1,3-benzodioxol-5-yl)cyclopropyl]carbonyl}amino)-7-methoxy-3,4-dihydro-2H-chromen-2-yl]benzoic acid), read-out: EC50 (with co-corrector).
Setting [3] is: test compound without co-corrector.
Setting [4] is: with co-corrector (2 μM of 3-[(2R,4R)-4-({[1-(2,2-difluoro-1,3-benzodioxol-5-yl)cyclopropyl]carbonyl}amino)-7-methoxy-3,4-dihydro-2H-chromen-2-yl]benzoic acid).

Like-named read-outs stand apart in the source and are kept apart here.

T1 sequence (P13569 with tags, fused parts or gaps DEL508-508): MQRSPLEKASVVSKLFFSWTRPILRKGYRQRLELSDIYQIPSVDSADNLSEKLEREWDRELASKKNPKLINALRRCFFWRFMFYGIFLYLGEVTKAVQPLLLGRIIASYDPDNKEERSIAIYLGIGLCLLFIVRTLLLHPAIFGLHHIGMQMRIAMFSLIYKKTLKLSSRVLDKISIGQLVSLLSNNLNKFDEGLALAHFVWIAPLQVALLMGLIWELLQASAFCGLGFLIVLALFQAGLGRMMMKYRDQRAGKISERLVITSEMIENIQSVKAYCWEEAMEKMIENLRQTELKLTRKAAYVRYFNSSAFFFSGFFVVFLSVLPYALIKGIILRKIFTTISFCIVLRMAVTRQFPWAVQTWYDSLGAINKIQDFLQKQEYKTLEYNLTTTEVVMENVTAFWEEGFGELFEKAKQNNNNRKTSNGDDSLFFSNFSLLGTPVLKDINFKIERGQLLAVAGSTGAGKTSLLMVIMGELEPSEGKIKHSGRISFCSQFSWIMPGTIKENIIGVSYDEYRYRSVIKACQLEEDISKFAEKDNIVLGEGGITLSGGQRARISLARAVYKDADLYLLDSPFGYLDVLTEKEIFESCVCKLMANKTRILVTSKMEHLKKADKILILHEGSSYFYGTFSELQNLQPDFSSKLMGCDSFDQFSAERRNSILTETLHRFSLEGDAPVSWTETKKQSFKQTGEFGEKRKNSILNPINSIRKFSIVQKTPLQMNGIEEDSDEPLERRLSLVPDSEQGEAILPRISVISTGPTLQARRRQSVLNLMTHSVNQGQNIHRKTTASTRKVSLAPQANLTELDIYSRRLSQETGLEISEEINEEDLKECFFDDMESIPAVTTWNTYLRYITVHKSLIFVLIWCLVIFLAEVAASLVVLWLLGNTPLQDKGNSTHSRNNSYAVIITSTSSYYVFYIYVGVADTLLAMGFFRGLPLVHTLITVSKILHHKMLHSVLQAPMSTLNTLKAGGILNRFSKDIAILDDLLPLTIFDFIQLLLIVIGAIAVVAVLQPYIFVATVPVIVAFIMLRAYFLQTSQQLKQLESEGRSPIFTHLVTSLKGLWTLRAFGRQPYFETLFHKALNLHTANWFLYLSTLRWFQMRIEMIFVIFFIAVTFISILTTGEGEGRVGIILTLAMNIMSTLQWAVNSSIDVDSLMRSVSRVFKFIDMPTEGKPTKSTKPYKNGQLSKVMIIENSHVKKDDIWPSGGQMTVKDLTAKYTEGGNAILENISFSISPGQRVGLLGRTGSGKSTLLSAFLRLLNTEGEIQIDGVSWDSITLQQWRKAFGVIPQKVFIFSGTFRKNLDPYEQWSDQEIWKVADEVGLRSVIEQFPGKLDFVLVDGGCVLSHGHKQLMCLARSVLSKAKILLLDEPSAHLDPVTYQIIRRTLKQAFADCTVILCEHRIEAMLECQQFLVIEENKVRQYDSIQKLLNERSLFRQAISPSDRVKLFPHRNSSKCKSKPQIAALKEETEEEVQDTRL

As to `COc1ncc(C(C)(C)C)cc1N[C@H]1[C@H](C(C)(C)C)[C@@H](C(=O)O)N(C(=O)C2CCCCC2)[C@H]1c1ccccc1` [Example 55, (2S,3S,4S,5S)-3-tert-butyl-4-[(5-tert-butyl-2-methoxypyridin-3-yl)amino]-1-(cyclohexanecarbonyl)-5-phenylpyrrolidine-2-carboxylic acid], the 50% effective concentration (EC50) (usually the concentration at which the effect is half-maximal) was in the range of 1000 to 10000 nM under setting [1] and 1000 to 10000 nM under setting [2]. Further, the “Maximum % activity (with co-corrector)” value (with co-corrector (2 μM)) is “++ (≥150 and <350)”. Also, under “without co-corrector”, the Emax is under 100%.
`CC(C)(C)[C@H]1[C@H](NCC2(c3ccc4c(c3)OC(F)(F)O4)CC2)[C@H](c2ccccc2)N(C(=O)C2CCCCC2)[C@@H]1C(=O)O` [II-499]: the Emax under setting [3] is 100 to 200%. The EC50 under setting [1] was in the range of 1000 to 10000 nM and the half-maximal effective concentration (EC50) under setting [2] was 1000 to 10000 nM. The “Maximum % activity (with co-corrector)” value under setting [4] is recorded as “+++ (≥350)”.
Consider `COc1ncc(C(F)(F)F)cc1CN[C@H]1[C@H](C(C)(C)C)[C@@H](C(=O)O)N(C(=O)C2CCOCC2)[C@H]1c1ccccc1C(C)C` [II-591], for which, under setting [3], the Emax is over 200%. In addition, the EC50 reads like this: under setting [1], 1000 to 10000 nM; under setting [2], under 1000 nM. The “Maximum % activity (with co-corrector)” value under setting [4] is given as “+++ (≥350)”.
In the case of `COc1ccc(C(F)(F)F)cc1CN[C@H]1[C@H](C(C)(C)OC)[C@@H](C(=O)O)N(C(=O)C2CCCCC2)[C@H]1c1ccccc1` [Example I-63], the concentration giving a half-maximal response (EC50) was 1000 to 10000 nM under setting [1] and under 1000 nM under setting [2]. Also, the “Maximum % activity (with co-corrector)” value (with co-corrector (2 μM)) is recorded as “+++ (≥350)”. In addition, the Emax (without co-corrector) is over 200%.
As for `COc1ccc(C(C)(C)C)cc1CN[C@H]1[C@H](C(C)(C)C)[C@@H](C(=O)O)N(C(=O)[C@@H](OC)c2ccc(F)c(F)c2)[C@H]1c1ccccc1` [II-396], under setting [3], the Emax was 100 to 200%. In addition, the EC50 reads like this: under setting [1], 1000 to 10000 nM; under setting [2], 1000 to 10000 nM. For the same compound, the “Maximum % activity (with co-corrector)” value under setting [4] is given as “+++ (≥350)”.
Consider `COc1ccc(C(C)(C)C)cc1CN[C@H]1[C@H](C(C)(C)C)[C@@H](C(=O)O)N(C(=O)[C@@H]2C[C@H]3CC[C@@H]2O3)[C@H]1c1ccccc1C(C)C` (relative stereo) [Example 74, (2S,3S,4S,5S)-3-tert-butyl-4-{[(5-tert-butyl-2-methoxyphenyl)methyl]amino}-1-[(1S*,2R*,4R*)-7-oxabicyclo[2.2.1]heptane-2-carbonyl]-5-[2-(propan-2-yl)phenyl]pyrrolidine-2-carboxylic acid], for which the EC50 reads like this: under setting [1], 1000 to 10000 nM; under setting [2], under 1000 nM. Besides, the “Maximum % activity (with co-corrector)” value (with co-corrector (2 μM)) is recorded as “+++ (≥350)”. The Emax (without co-corrector) is over 200%.
As for `COc1ccc(C(C)(C)C)cc1CN[C@H]1[C@H](C(C)(C)C)[C@@H](C(=O)O)N(C(=O)C2CCCS2(=O)=O)[C@H]1c1ccccc1` (stereo partly shown) [Example I-192], the concentration giving a half-maximal response (EC50) is, setting by setting: under setting [1], 1000 to 10000 nM; under setting [2], 1000 to 10000 nM. The “Maximum % activity (with co-corrector)” value (with co-corrector (2 μM)) is “+++ (≥350)”. For the same compound, the Emax (without co-corrector) was 100 to 200%.
Regarding `COc1cc(F)ccc1CN[C@H]1[C@H](C(C)(C)C)[C@@H](C(=O)O)N(C(=O)C2CCCCC2)[C@H]1c1ccccc1` [II-118], the EC50 runs as follows: (CSE-HRP, test compound without co-corrector, read-out: EC50 (without co-corrector)) 1000 to 10000 nM; (CSE-HRP, with co-corrector (2 μM of 3-[(2R,4R)-4-({[1-(2,2-difluoro-1,3-benzodioxol-5-yl)cyclopropyl]carbonyl}amino)-7-methoxy-3,4-dihydro-2H-chromen-2-yl]benzoic acid), read-out: EC50 (with co-corrector)) 1000 to 10000 nM. Further, under “CSE-HRP, with co-corrector (2 μM)”, the “Maximum % activity (with co-corrector)” value was “+++ (≥350)”. Further, the Emax (CSE-HRP, without co-corrector) is 100 to 200%.
In the case of `COc1ccc(C(C)(C)C)cc1CN[C@H]1[C@H](C(C)(C)C)[C@@H](C(=O)O)N(C(=O)C2CCc3ccccc3C2)[C@H]1c1ccccc1` (stereo partly shown) [III-191], under setting [3], the Emax was over 200%. In addition, the EC50 under setting [1] is under 1000 nM and the EC50 under setting [2] was under 1000 nM. In addition, for the setting “with co-corrector (2 μM)”, the “Maximum % activity (with co-corrector)” value is reported as “+++ (≥350)”.
Consider `COc1ncc(C(F)(F)F)cc1CN[C@H]1[C@H](C(C)(C)C)[C@@H](C(=O)O)N(C(=O)[C@H]2CC[C@@H](c3ccccc3)O2)[C@H]1c1ccccc1` (relative stereo) [II-426], for which, under setting [3], the Emax was under 100%. Further, the EC50 is, setting by setting: under setting [1], 1000 to 10000 nM; under setting [2], under 1000 nM. For the same compound, the “Maximum % activity (with co-corrector)” value under setting [4] is “+++ (≥350)”.
